What was measured:
A549 cells = experiment: Measurement of PGE2 concentration in A549 cell medium (ELISA); format: cell-based, human; details: for Increment %: PGE2 concentration versus PBS control, 5 μM, 12 hours; for PGE2 concentration: inhibitor 5 μM, medium collected after 12 hours, ELISA
Protocol: A549 cells were subcultured in RPMI 1640 medium (containing+8% fetal bovine serum (FBS) and antibiotic-antimycotic (AA)) for one week, and then, inoculated in a 6-well plate at 2.5×10^5 cells/mL (5×10^5 cells/well) and cultured for 24 hours in a 5% CO2 incubator at a temperature of 37° C. A549 cells are adenocarcinomic human alveolar basal epithelial cells which are derived from lung tissues. When cells were grown to about 80% confluence, a 15-PGDH inhibitor in 1×PBS buffer was injected at a concentration of 5 μM. To compare the results, the same amount of 1×PBS buffer was injected into a negative control, and, the treated cells were cultured in 5% CO2 incubator. After 12 hours, the medium was collected and the collected medium was assayed to measure PGE2 concentration by using an ELISA Kit (Abcam) according to the manufacturer's instructions. The concentration may be expressed as an exact value by plotting the calibration curve by using the absorbance value after diluting the standard in the medium by concentration.

15-PGDH = 15-PGDH (Homo sapiens (Human), UniProt P15428); experiment: 15-PGDH inhibitory activity (NADH at 340 nm); format: biochemical; details: concentration inhibiting 50% of 15-PGDH activity; purified 15-PGDH, 21 μM PGE2, 0.25 mM NAD+
Sequence of 15-PGDH (P15428 whole entry): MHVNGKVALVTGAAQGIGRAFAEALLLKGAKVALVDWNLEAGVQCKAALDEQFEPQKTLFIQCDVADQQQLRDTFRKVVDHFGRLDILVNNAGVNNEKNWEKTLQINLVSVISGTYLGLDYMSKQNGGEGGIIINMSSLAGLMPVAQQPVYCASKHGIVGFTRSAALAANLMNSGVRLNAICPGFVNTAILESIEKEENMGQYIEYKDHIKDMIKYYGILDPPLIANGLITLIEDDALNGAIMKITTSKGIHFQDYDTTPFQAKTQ
Protocol: The 15-PGDH cDNA plasmid containing the BamHI of the pGEX-2T expression vector and EcoRI restriction enzyme sites was transfected into E. coli BL-21 LysS by using conventional methods used in the art. Then, the transfected cells were cultured in an LB medium (500 ml) containing 50 μg/ml of ampicillin at a temperature of 37° C. and at a rate of 220 rpm until the OD600 reached 0.6. Then, isopropyl beta-D-thiogalactoxide (1 mM) was added and the cells were further cultured at the temperature of 25° C. for 12 hours. The cells were then centrifuged at the gravity of 4,000 g for 30 minutes at a temperature of 4° C. to collect a cell pellet. The cell pellet was dissolved in 20 ml of cell lysis buffer (containing 1×PBS buffer (pH 7.4): 1 mM EDTA and 0.1 mM DTT) and sonicated at a temperature of 4° C. for 14×10 s. The digested cells were centrifuged at the gravity of 4,000 g for 20 minutes at a temperature of 4° C. The supernatant was then slowly loaded onto a glutathione-sepharose 4B column equilibrated at a temperature of 4° C. with cell lysis buffer [containing 1×PBS buffer (pH 7.4), 1 mM EDTA, and 0.1 mM DTT]. Washing was performed thereon by using a dissolution buffer until the OD280 reached 0.005 or less. Then, 15-PGDH was eluted from the glutathione-sepharose 4B column at room temperature for 5 minutes by using an elution buffer [containing 50 mM Tris-HCl (pH 8.0), 10 mM reduced glutathione, 1 mM EDTA, and 0.1 mM DTT). The concentration of the purified enzyme was measured, and the purification level thereof was confirmed by SDS-PAGE.
That is, the cells were treated with a solution including 50 mM Tris-HCl (pH 7.5), 0.1 mM DTT, 0.25 mM (NAD+), 10 μg of purified 15-PGDH enzyme, 21 μM PGE2. and various concentrations (0.0001 μM to 64 μM) of the derivative compound according to the present disclosure. In this case, the total volume of the solution was 2 ml. Then, the absorbance of the reaction mixture was recorded at the wavelength of 340 nm. To measure the activity of the derivative compounds according to the present disclosure, which is an inhibitor of 15-PGDH, the average value of NADH absorbance at 340 nm at various concentrations was obtained from a standard curve.

SMILES | Increment % (A549 cells) | PGE2 concentration (A549 cells) | IC50 (15-PGDH)
O=C1NC(=O)/C(=C/c2ccc(OC(=O)C3CCCCC3)cc2Cl)S1 [Compound 96, (Z)-3-chloro-4-((2,4-dioxothiazolidin-5-ylidene)methyl)phenyl cyclohexanecarboxylate] | 8.8874% | 121.5809 pg/mL | 26.8 nM
COc1cc(/C=C2\SC(=O)NC2=O)ccc1OC(=O)CCCCC1CCCCC1 [Compound 40, (Z)-4-((2,4-dioxothiazolidin-5-ylidene)methyl)-2-methoxyphenyl 5-cyclohexylpentanoate] | 7.88% | 218.7373 pg/mL | 28.2 nM
O=C1NC(=O)/C(=C/c2ccc(OC(=O)C3CC3)cc2)S1 [Compound 61, (Z)-4-((2,4-dioxothiazolidin-5-ylidene)methyl)phenyl cyclopropanecarboxylate] | −99.97% | 0.04774 pg/mL | 1410 nM
O=C(CCCCc1ccccc1)Oc1cccc(/C=C2\SC(=O)NC2=O)c1Cl [Compound 90, (Z)-2-chloro-3-((2,4-dioxothiazolidin-5-ylidene)methyl)phenyl 5-phenylpentanoate] | 98.11% | 416.8478 pg/mL | 46 nM
O=C(CCc1ccccc1)Oc1cccc(/C=C2\SC(=O)NC2=O)c1Cl [Compound 88, (Z)-2-chloro-3-((2,4-dioxothiazolidin-5-ylidene)methyl)phenyl 3-phenylpropanoate] | 113.47% | 449.1671 pg/mL | 22.5 nM
O=C(CC1CCCC1)Oc1ccc(/C=C2\SC(=O)NC2=O)cc1Cl [Compound 4, (Z)-2-chloro-4-((2,4-dioxothiazolidin-5-ylidene)methyl)phenyl 2-cyclopentylacetate] | 103.32% | 556.6271 pg/mL | 78.3 nM
CCOc1cc(/C=C2\SC(=O)NC2=O)ccc1OC(=O)CCc1ccccc1 [Compound 58, (Z)-4-((2,4-dioxothiazolidin-5-ylidene)methyl)-2-ethoxyphenyl 3-phenylpropanoate] | 7.97% | 171.8161 pg/mL | 94.3 nM
O=C(CCCc1ccccc1)Oc1ccc(/C=C2\SC(=O)NC2=O)c(Cl)c1 [Compound 104, (Z)-3-chloro-4-((2,4-dioxothiazolidin-5-ylidene)methyl)phenyl 4-phenylbutanoate] | 213.4577% | 349.9990 pg/mL | 74.9 nM
O=C(O)c1ccccc1.O=C1NC(=O)/C(=C/c2ccc(OC(=O)c3ccccc3)c(Cl)c2)S1 [Compound 11, (Z)-2-chloro-4-((2,4-dioxothiazolidin-5-ylidene)methyl)phenyl benzoate] | −78.32% | 25.95 pg/mL | 31.9 nM
O=C(CC1CCCC1)Oc1cccc(/C=C2\SC(=O)NC2=O)c1Cl [Compound 79, (Z)-2-chloro-3-((2,4-dioxothiazolidin-5-ylidene)methyl)phenyl 2-cyclopentylacetate] | −2.34% | 116.875 pg/mL | 42.8 nM
COc1cc(/C=C2\SC(=O)NC2=O)ccc1OC(=O)CC1CCCC1 [Compound 34, (Z)-4-((2,4-dioxothiazolidin-5-ylidene)methyl)-2-methoxyphenyl 2-cyclopentylacetate] | −70.77% | 57.64 pg/mL | 60.2 nM
O=C(CCCCc1ccccc1)Oc1ccc(/C=C2\SC(=O)NC2=O)c(Cl)c1 [Compound 105, (Z)-3-chloro-4-((2,4-dioxothiazolidin-5-ylidene)methyl)phenyl 5-phenylpentanoate] | 89.4598% | 211.5461 pg/mL | 130 nM
O=C(CCCCC1CCCCC1)Oc1ccc(/C=C2\SC(=O)NC2=O)cc1 [Compound 70, (Z)-4-((2,4-dioxothiazolidin-5-ylidene)methyl)phenyl 5-cyclohexylpentanoate] | 69.97% | 219.5565 pg/mL | 50.4 nM
O=C(O)c1ccccc1.O=C1NC(=O)/C(=C/c2cccc(OC(=O)c3ccccc3)c2Cl)S1 [Compound 86, (Z)-2-chloro-3-((2,4-dioxothiazolidin-5-ylidene)methyl)phenyl benzoate] | −12.12% | 184.9103 pg/mL | 54.1 nM
O=C(CCC1CCCC1)Oc1ccc(/C=C2\SC(=O)NC2=O)cc1Br [Compound 20, (Z)-2-bromo-4-((2,4-dioxothiazolidin-5-ylidene)methyl)phenyl 3-cyclopentylpropanoate] | 227.32% | 828.2384 pg/mL | 15.8 nM
O=C1NC(=O)/C(=C/c2ccc(OC(=O)C3CCC3)cc2Cl)S1 [Compound 92, (Z)-3-chloro-4-((2,4-dioxothiazolidin-5-ylidene)methyl)phenyl cyclobutanecarboxylate] | −57.6754% | 47.26 pg/mL | 206 nM
O=C(Cc1ccccc1)Oc1ccc(/C=C2\SC(=O)NC2=O)cc1Br [Compound 27, (Z)-2-bromo-4-((2,4-dioxothiazolidin-5-ylidene)methyl)phenyl 2-phenylacetate] | 99.65% | 393.7184 pg/mL | 40.6 nM
O=C(O)c1ccccc1.O=C1NC(=O)/C(=C/c2ccc(OC(=O)c3ccccc3)cc2Cl)S1 [Compound 101, (Z)-3-chloro-4-((2,4-dioxothiazolidin-5-ylidene)methyl)phenyl benzoate] | 79.4871% | 200.4108 pg/mL | 45.1 nM
O=C1NC(=O)/C(=C/c2ccc(OC(=O)C3CCCC3)cc2)S1 [Compound 63, (Z)-4-((2,4-dioxothiazolidin-5-ylidene)methyl)phenyl cyclopentanecarboxylate] | 49.33% | 237.6336 pg/mL | 179 nM
O=C(CC1CCCCC1)Oc1ccc(/C=C2\SC(=O)NC2=O)cc1Br [Compound 22, (Z)-2-bromo-4-((2,4-dioxothiazolidin-5-ylidene)methyl)phenyl 2-cyclohexylacetate] | 89.77% | 480.187 pg/mL | 20.6 nM
O=C(CCC1CCCC1)Oc1ccc(/C=C2\SC(=O)NC2=O)cc1Cl [Compound 5, (Z)-2-chloro-4-((2,4-dioxothiazolidin-5-ylidene)methyl)phenyl 3-cyclopentylpropanoate] | 83.07% | 501.1889 pg/mL | 30.5 nM
O=C(CCCCC1CCCCC1)Oc1ccc(/C=C2\SC(=O)NC2=O)c(Cl)c1 [Compound 100, (Z)-3-chloro-4-((2,4-dioxothiazolidin-5-ylidene)methyl)phenyl 5-cyclohexylpentanoate] | −3.7411% | 107.4803 pg/mL | 39.4 nM
O=C(CC1CCCCC1)Oc1ccc(/C=C2\SC(=O)NC2=O)c(Cl)c1 [Compound 97, (Z)-3-chloro-4-((2,4-dioxothiazolidin-5-ylidene)methyl)phenyl 2-cyclohexylacetate] | 8.1011% | 120.703 pg/mL | 27.7 nM
COc1cc(/C=C2\SC(=O)NC2=O)ccc1OC(=O)CCCc1ccccc1 [Compound 44, (Z)-4-((2,4-dioxothiazolidin-5-ylidene)methyl)-2-methoxyphenyl 4-phenylbutanoate] | 299.80% | 810.6337 pg/mL | 23.9 nM
